Assays:
[1] = molecular target: Proto-oncogene tyrosine-protein kinase Src (Homo sapiens, UniProt P12931); assay: Inhibition of c-Src using AEEEIYGEFEAKKKK substrate by fluorescence intensity assay
SK-OV-3 = assay: Anticancer activity against human SKOV3 cells assessed as inhibition of cell proliferation at 50 uM after 72 hrs relative to control; assay type: functional; conditions: SK-OV-3, 72 h
HT-29 = assay: Anticancer activity against human HT-29 cells assessed as inhibition of cell proliferation at 50 uM after 72 hrs relative to control; assay type: functional; conditions: HT-29, 72 h

Sequence of Proto-oncogene tyrosine-protein kinase Src (P12931 2-536 limits assumed): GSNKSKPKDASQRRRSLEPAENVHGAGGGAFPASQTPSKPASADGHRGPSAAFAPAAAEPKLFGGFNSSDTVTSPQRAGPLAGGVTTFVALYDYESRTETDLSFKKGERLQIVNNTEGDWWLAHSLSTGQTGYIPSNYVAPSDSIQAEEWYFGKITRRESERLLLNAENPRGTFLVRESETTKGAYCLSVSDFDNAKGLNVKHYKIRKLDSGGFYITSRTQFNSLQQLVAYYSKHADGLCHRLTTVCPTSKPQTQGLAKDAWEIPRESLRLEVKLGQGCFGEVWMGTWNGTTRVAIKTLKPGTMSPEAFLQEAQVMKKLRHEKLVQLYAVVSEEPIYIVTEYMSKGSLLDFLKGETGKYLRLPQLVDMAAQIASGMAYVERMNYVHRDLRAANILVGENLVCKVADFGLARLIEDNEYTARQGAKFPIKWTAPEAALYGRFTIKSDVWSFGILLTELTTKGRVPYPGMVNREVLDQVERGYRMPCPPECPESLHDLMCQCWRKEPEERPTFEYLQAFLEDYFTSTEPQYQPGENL

Compound | IC50 [1] | inhibition at 50 µM (SK-OV-3) | inhibition at 50 µM (HT-29)
CN(c1ccccc1)C(c1cccc([N+](=O)[O-])c1)c1c[nH]c2ccccc12 (configuration not stated) | 58.3 µM | – | –
CN(c1ccccc1)C(c1ccc(O)c(Br)c1)c1c[nH]c2ccccc12 (configuration not stated) | > 150 µM | – | –
COc1ccc(C(c2c[nH]c3ccccc23)N(C)c2ccccc2)cc1 (configuration not stated) | > 150 µM | – | –
CN(c1ccccc1)C(c1ccccc1)c1cn(C)c2ccccc12 (configuration not stated) | > 150 µM | – | –
CN(c1ccccc1)C(c1ccc(O)cc1)c1c[nH]c2ccccc12 (configuration not stated) | > 150 µM | – | –
Cc1ccc(C(c2cn(C)c3ccccc23)N(C)c2ccccc2)cc1 (configuration not stated) | 60.5 µM | – | –
COc1ccc(C(c2c[nH]c3ccc(OC)cc23)N(C)c2ccccc2)cc1 (configuration not stated) | 100 µM | – | –
COc1ccc2[nH]cc(C(c3ccc(Cl)cc3)N(C)c3ccccc3)c2c1 (configuration not stated) | 87 µM | 77% | –
CN(c1ccccc1)C(c1ccccc1)c1c[nH]c2ccccc12 (configuration not stated) | 50.6 µM | 55% | –
Cc1ccc(C(c2c[nH]c3ccccc23)N(C)c2ccccc2)cc1 (configuration not stated) | > 150 µM | – | –
COc1cccc(C(c2c[nH]c3ccccc23)N(C)c2ccccc2)c1 (configuration not stated) | > 150 µM | – | –
CN(c1ccccc1)C(c1ccc(Cl)cc1)c1c[nH]c2ccccc12 (configuration not stated) | > 150 µM | 72% | –
CN(c1ccccc1)C(c1ccc(Cl)cc1)c1cn(C)c2ccccc12 (configuration not stated) | 98.3 µM | – | –
CN(c1ccccc1)C(c1ccccc1)c1c[nH]c2ccc(Br)cc12 (configuration not stated) | 71.6 µM | – | –
Cc1ccc(C(c2c[nH]c3ccc(Br)cc23)N(C)c2ccccc2)cc1 (configuration not stated) | > 150 µM | 70% | 70%
COc1ccc(C(c2c[nH]c3ccccc23)N(C)c2ccccc2)c(OC)c1 (configuration not stated) | > 150 µM | – | –
COc1ccc(C(c2c[nH]c3ccc(Br)cc23)N(C)c2ccccc2)cc1 (configuration not stated) | 106 µM | 70% | 70%
COc1ccc2[nH]cc(C(c3ccc(C)cc3)N(C)c3ccccc3)c2c1 (configuration not stated) | > 150 µM | 70% | 70%

— ChEMBL document CHEMBL1777676, “3-substitued indoles: one-pot synthesis and evaluation of anticancer and Src kinase inhibitory activities” (Bioorg Med Chem Lett, 2011)
